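The compound was tested at five concentrations on cells cultured in 96-well plates, with a 48-hour exposure period. GI50 marks 50% less growth.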 Active and inactive are the calls of the source. Cut-off read from the data, not from the text of the source: active = GI50 up to about 1.1 µM and inactive = higher.
Experiments:
Assay in all cases: NCI-60 cell line screen, 48 h
MDA-N = system: MDA-N
CCRF-CEM = system: CCRF-CEM
786-0 = system: 786-0
NCI-H522 = system: NCI-H522
EKVX = system: EKVX
IGROV-1 = system: IGROV-1
SF-295 = system: SF-295
ACHN = system: ACHN
K562 = system: K562
KM12 = system: KM12
SK-MEL-2 = system: SK-MEL-2
UO-31 = system: UO-31
OVCAR-8 = system: OVCAR-8
SN12C = system: SN12C
HL-60 = system: HL-60
U-251 = system: U-251
OVCAR-4 = system: OVCAR-4
PC-3 = system: PC-3
T47D = system: T47D
NCI-H226 = system: NCI-H226
SK-MEL-28 = system: SK-MEL-28
HCT-15 = system: HCT-15
A498 = system: A498
UACC-62 = system: UACC-62
SF-268 = system: SF-268
NCI-H23 = system: NCI-H23
HT-29 = system: HT-29
HOP-62 = system: HOP-62
DU-145 = system: DU-145
BT-549 = system: BT-549
HCT-116 = system: HCT-116
A549 = system: A549
RPMI-8226 = system: RPMI-8226
SNB-19 = system: SNB-19
M14 = system: M14
SW-620 = system: SW-620
NCI/ADR-RES = system: NCI/ADR-RES
CAKI-1 = system: CAKI-1
HOP-92 = system: HOP-92
SF-539 = system: SF-539
LOX IMVI = system: LOX IMVI
RXF 393 = system: RXF 393
NCI-H460 = system: NCI-H460
TK-10 = system: TK-10
OVCAR-3 = system: OVCAR-3
OVCAR-5 = system: OVCAR-5
COLO 205 = system: COLO 205
UACC-257 = system: UACC-257
SK-OV-3 = system: SK-OV-3
SK-MEL-5 = system: SK-MEL-5
MDA-MB-435 = system: MDA-MB-435
MOLT-4 = system: MOLT-4
SR = system: SR
MDA-MB-231 = system: MDA-MB-231
Hs-578T = system: Hs-578T
MCF7 = system: MCF7
Malme-3M = system: Malme-3M
HCC 2998 = system: HCC 2998
SNB-75 = system: SNB-75

CCCC(=O)Nc1cc(/C=C/C(=O)N2CC(CCl)c3c2cc(OC(C)=O)c2[nH]cc(C)c32)n(C)c1 (stereo not drawn)
GI50 (MDA-N): 0.0512 nM (active)
GI50 (CCRF-CEM): < 0.025 nM (active)
GI50 (786-0): < 0.025 nM (active)
GI50 (NCI-H522): < 0.025 nM (active)
GI50 (EKVX): 0.108 nM (active)
GI50 (IGROV-1): 0.0376 nM (active)
GI50 (SF-295): 0.0452 nM (active)
GI50 (ACHN): < 0.025 nM (active)
GI50 (K562): 0.0306 nM (active)
GI50 (KM12): 0.0873 nM (active)
GI50 (SK-MEL-2): 0.0592 nM (active)
GI50 (UO-31): 0.0684 nM (active)
GI50 (OVCAR-8): < 0.025 nM (active)
GI50 (SN12C): 0.0718 nM (active)
GI50 (HL-60): < 0.025 nM (active)
GI50 (U-251): < 0.025 nM (active)
GI50 (OVCAR-4): < 0.025 nM (active)
GI50 (PC-3): 0.0501 nM (active)
GI50 (T47D): 0.063 nM (active)
GI50 (NCI-H226): 0.0433 nM (active)
GI50 (SK-MEL-28): 0.0452 nM (active)
GI50 (HCT-15): 0.547 nM
GI50 (A498): 0.116 nM (active)
GI50 (UACC-62): < 0.025 nM (active)
GI50 (SF-268): < 0.025 nM (active)
GI50 (NCI-H23): < 0.025 nM (active)
GI50 (HT-29): 0.0549 nM (active)
GI50 (HOP-62): 0.0463 nM (active)
GI50 (DU-145): < 0.025 nM (active)
GI50 (BT-549): 0.0809 nM (active)
GI50 (HCT-116): < 0.025 nM (active)
GI50 (A549): 0.0819 nM (active)
GI50 (RPMI-8226): 0.171 nM (active)
GI50 (SNB-19): 0.11 nM (active)
GI50 (M14): 0.0538 nM (active)
GI50 (SW-620): 0.0296 nM (active)
GI50 (NCI/ADR-RES): 0.24 nM (active)
GI50 (CAKI-1): 0.0766 nM (active)
GI50 (HOP-92): 0.0428 nM (active)
GI50 (SF-539): < 0.025 nM (active)
GI50 (LOX IMVI): < 0.025 nM (active)
GI50 (RXF 393): < 0.025 nM (active)
GI50 (NCI-H460): < 0.025 nM (active)
GI50 (TK-10): 0.363 nM (active)
GI50 (OVCAR-3): < 0.025 nM (active)
GI50 (OVCAR-5): 0.0724 nM (active)
GI50 (COLO 205): 0.0703 nM (active)
GI50 (UACC-257): 0.0297 nM (active)
GI50 (SK-OV-3): 0.0705 nM (active)
GI50 (SK-MEL-5): < 0.025 nM (active)
GI50 (MDA-MB-435): 0.0495 nM (active)
GI50 (MOLT-4): < 0.025 nM (active)
GI50 (SR): < 0.025 nM (active)
GI50 (MDA-MB-231): 0.0644 nM (active)
GI50 (Hs-578T): 0.0656 nM (active)
GI50 (MCF7): 0.0294 nM (active)
GI50 (Malme-3M): 0.0323 nM (active)
GI50 (HCC 2998): < 0.025 nM (active)
GI50 (SNB-75): 0.0577 nM (active)

Nc1nc(SCC(=O)c2ccccc2)nc2nc3c(c(-c4ccccc4)c12)CCCC3
GI50 (MDA-N): 31900 nM (inactive)
GI50 (CCRF-CEM): 74800 nM (inactive)
GI50 (786-0): 20600 nM (inactive)
GI50 (NCI-H522): 31200 nM (inactive)
GI50 (EKVX): 63400 nM (inactive)
GI50 (IGROV-1): > 10000 nM (inactive)
GI50 (SF-295): > 10000 nM (inactive)
GI50 (ACHN): 56600 nM (inactive)
GI50 (K562): > 100000 nM (inactive)
GI50 (KM12): 22400 nM (inactive)
GI50 (SK-MEL-2): 27900 nM (inactive)
GI50 (UO-31): 12400 nM (inactive)
GI50 (OVCAR-8): 27200 nM (inactive)
GI50 (SN12C): 38500 nM (inactive)
GI50 (HL-60): > 100000 nM (inactive)
GI50 (U-251): 32000 nM (inactive)
GI50 (OVCAR-4): 23400 nM (inactive)
GI50 (PC-3): > 10000 nM (inactive)
GI50 (T47D): 40300 nM (inactive)
GI50 (NCI-H226): 18100 nM (inactive)
GI50 (SK-MEL-28): 21900 nM (inactive)
GI50 (HCT-15): > 100000 nM
GI50 (A498): 19800 nM (inactive)
GI50 (UACC-62): 23300 nM (inactive)
GI50 (SF-268): 18400 nM (inactive)
GI50 (NCI-H23): 76200 nM (inactive)
GI50 (HT-29): 27100 nM (inactive)
GI50 (HOP-62): 41900 nM (inactive)
GI50 (DU-145): > 100000 nM (inactive)
GI50 (BT-549): 40900 nM (inactive)
GI50 (HCT-116): 30500 nM (inactive)
GI50 (A549): 45100 nM (inactive)
GI50 (RPMI-8226): > 100000 nM (inactive)
GI50 (SNB-19): 49900 nM (inactive)
GI50 (M14): 19200 nM (inactive)
GI50 (SW-620): > 10000 nM (inactive)
GI50 (NCI/ADR-RES): 25600 nM (inactive)
GI50 (CAKI-1): 15300 nM (inactive)
GI50 (HOP-92): > 10000 nM (inactive)
GI50 (SF-539): > 100000 nM (inactive)
GI50 (LOX IMVI): 24800 nM (inactive)
GI50 (RXF 393): 17700 nM (inactive)
GI50 (NCI-H460): 32900 nM (inactive)
GI50 (TK-10): > 100000 nM (inactive)
GI50 (OVCAR-3): 22500 nM (inactive)
GI50 (OVCAR-5): 52000 nM (inactive)
GI50 (COLO 205): > 10000 nM (inactive)
GI50 (UACC-257): 35000 nM (inactive)
GI50 (SK-OV-3): 4710 nM (inactive)
GI50 (SK-MEL-5): 49100 nM (inactive)
GI50 (MDA-MB-435): 32600 nM (inactive)
GI50 (MOLT-4): > 100000 nM (inactive)
GI50 (SR): > 100000 nM (inactive)
GI50 (MDA-MB-231): 19100 nM (inactive)
GI50 (Hs-578T): 19100 nM (inactive)
GI50 (MCF7): 47800 nM (inactive)
GI50 (Malme-3M): 52400 nM (inactive)
GI50 (HCC 2998): 33000 nM (inactive)
GI50 (SNB-75): 26400 nM (inactive)
